Test results: patent US20200338519A1, “METHOD FOR PREPARING LIPOSOME” (priority 2015, published 2020)

Test: Solubility in water and aqueous medium
Assay type: physicochemical

## moexitecan
  Solubility in water and an aqueous medium: insoluble or almost insoluble
